Results reported in article PMC7356589, “Hybrid Gold(I) NHC-Artemether Complexes to Target Falciparum Malaria Parasites” (Molecules, 2020).
Where two headings read alike, the source gives them in different places.

Legend:
Vero cell line = test: Cytotoxicity on Vero cells (MTT); assay type: cell-based, monkey; details: for IC50: Vero cells, 48 h, MTT, read-out: Cytotoxicity on Vero Cells IC50 ± SEM; for Selectivity Index Vero Cells/P. falciparum: cytotoxic/antiplasmodial activity ratio
Protocol: (§1) The cells were cultured in MEM medium (Dutscher, Brumath, France) supplemented with 10% fetal bovine serum (Dutscher), 0.7 mM glutamine and 100 μg/mL gentamicin. The cells were seeded at 10^4 cells per well in a 96-well plates and incubated during 24 h. Then, cells were incubated for additional 48 h with the drugs. […] Subsequently, DMSO was added to the wells containing the cells and MTT to dissolve the formed crystals. The plates were then read to determine the absorbance at wavelength of 540 nm (µQuant, BioTek, Illkirch, France). Cell proliferation was calculated from at least three independent experiments using GraphPad Prism software 7 (GraphPad Software, San Diego, CA, USA). The cytotoxic/antiplasmodial activity ratio corresponds to the selectivity index.

[1] = test system: P. falciparum strain F32-TEM (F32-Tanzania); test: In vitro antiplasmodial activity (SYBR Green fluorescence and [3H] hypoxanthine assays); assay type: cell-based, Plasmodium falciparum; details: strain F32-Tanzania (F32-TEM), mean of at least 4 experiments, SYBR Green and radioactivity assays, read-out: Antiplasmodial Activity on P. falciparum IC50 ± SEM
Protocol: In vitro antiplasmodial activities of the synthesized hybrid molecules were evaluated against the P. falciparum strain F32-TEM (corresponding to the parental strain F32-Tanzania). Each molecule was tested at least in three independent experiments (except Aubis(5-Bn), tested twice) by a SYBR Green Fluorescence assay but also at least once with the standard chemosensitivity assay recommended by the WHO and based on the incorporation of [^3H] hypoxanthine.
For the SYBR Green Fluorescence assay, ring stage parasites were treated with the drugs for 48 h. Then, the pellets were washed twice with PBS and frozen at −20 °C. Thawed plates were incubated for 2 h at room temperature with the SYBR Green (Thermo-Fisher, Illkirch, France) lysis buffer (20 mm Tris base pH 7.5, 5 mm EDTA, 0.008% w/v saponin, 0.08% w/v Triton X-100). The plates were then read using a fluorescence plate reader (FLx800, BioTek, Illkirch, France) at an excitation wavelength of 485 nm and 535 nm for the emission wavelength. The IC50 values (concentration inhibiting 50% of the parasite’s growth) were determined using GraphPad Prism software 7 (GraphPad Software, San Diego, CA, USA).
For [^3H] hypoxanthine assay, ring stage parasites were incubated with the drug dilutions for 24 h, then, [^3H] hypoxanthine (50 μL/0.25 μCi; Perkin-Elmer, Courtaboeuf, France) was added for another 24 h period. After that, plates were frozen at −20 °C. The next step is to thaw the plates and to collect the nucleic acids. Tritium incorporation was then determined thanks to a β-counter (Perkin-Elmer, Courtaboeuf, France).
The antiplasmodial activities reported in Table 1 correspond thus to the mean of IC50 values from at least 4 independent experiments acquired by the two methods, SYBR Green and radioactivity.

[2] = test system: P. falciparum F32-TEM (artemisinin-sensitive); test: Recrudescence assay after 48 h drug exposure, F32-TEM; assay type: cell-based, Plasmodium falciparum; details: 48 h exposure
Protocol: (§2) The Plasmodium falciparum F32-ART and F32-TEM parasite lines, resistant and sensitive to artemisinins respectively, were cultured in vitro in type O human erythrocytes (Etablissement Français du sang (EFS), Toulouse, France), diluted to 2% hematocrit, in RPMI-1640 medium (GIBCO, Illkirch, France) and supplemented with 5% Human Serum AB (EFS, Toulouse, France) at 37 °C and 5% CO2 [33]. Every other day and before each experiment, P. falciparum F32-ART and F32-TEM parasites were synchronized at ring stage using 5% D-sorbitol solution [34].
(§3) P. falciparum strains F32-ART and F32-TEM, synchronized at ring stage parasites at 3% parasitemia and 2% hematocrit have undergone a 48 h-treatment with the drugs to be tested. The parasites were then washed with RPMI-1640 medium and re-cultivated in drug-free culture conditions with 10% human serum. The parasitemia was then monitored daily to determine the time required for each parasite culture to recover the initial parasitemia of 3%. If no parasites were seen up to 30 days, the parasites were considered as “not recrudescent” [9, 15]. The drug doses were chosen in order to discriminate the phenotype response between the artemisinin-resistant and the -sensitive strains. A range from 1-fold to >100-fold the antiplasmodial IC50 value previously found has been tested to determine the most appropriate drug dose to use in this recrudescence assay.

[3] = test system: P. falciparum F32-ART (artemisinin-resistant); test: Recrudescence assay after 48 h drug exposure, F32-ART; assay type: cell-based, Plasmodium falciparum; details: 48 h exposure
Protocol: as §2, §3

[4] = test system: P. falciparum F32-ART and F32-TEM strains; test: Recrudescence assay, comparison of F32-TEM and F32-ART (cross-resistance with artemisinin); assay type: cell-based, Plasmodium falciparum; details: for Mean ± SEM Difference of Recrudescence Days between F32-TEM and F32-ART: 48 h exposure; for Cross-resistance with artemisinin (result in words): recrudescence assay, F32-ART vs F32-TEM
Protocol: Three hybrid molecules with the best selectivity indexes in each series, i.e., Aubis(3-Me) (14), Aubis(4-Me) (19) and Aubis(5-Me) (23), were evaluated in vitro for their efficacy in a context of resistance to artemisinins. For that, the comparison of the recovery capacity between the strain F32-ART, artemisinin-resistant, and its twin artemisinin-sensitive F32-TEM was evaluated after 48 h-treatment with the molecule to be tested via the recrudescence assay. When ring-stage resistant parasites are exposed to artemisinin, most of them die, but a small sub-set of parasites is able to escape the treatment by a cell cycle arrest, called quiescence mechanism. This phenomenon is characterized by a halt of DNA synthesis, which explains the very low IC50 values obtained with all artemisinins even for the artemisinin-resistant strain F32-ART [9, 15, 30]. Therefore, the standard in vitro chemosensitivity assay, based on the measurement of DNA levels to estimate the inhibition of the parasite proliferation, is irrelevant to study the resistance to artemisinins and evaluate possible cross-resistances.
as §3

[5] = Cytotoxicity on Vero cells (MTT); assay type: cell-based, monkey; details: monkey; Vero cells, 48 h, MTT; read-out: Cytotoxicity on Vero Cells IC50 ± SEM
Protocol: as §1

[6] = Plasmodium falciparum, F32, 48 h

Compound	IC50 (Vero cell line) [µM]	IC50 ([1]; 48 h) [µM]	Median (range) Recrudescence Days, F32-TEM ([2]; dose 500 nM)	Median (range) Recrudescence Days, F32-ART ([3]; dose 500 nM)	Mean ± SEM Difference of Recrudescence Days between F32-TEM and F32-ART ([4]; dose 500 nM) [days]	Cross-resistance with artemisinin (result in words) [4]	Selectivity Index Vero Cells/P. falciparum (Vero cell line)	IC50 at 48 h [5] [µM]	IC50 [1, 6] [µM]	other results
C[C@@H]1CCC2[C@@H](C)[C@@H](OCCCCn3cc[n+](C)[c]3[Au-][c]3n(CCCCO[C@H]4O[C@@H]5O[C@@]6(C)CCC7[C@H](C)CCC([C@H]4C)[C@]75OO6)cc[n+]3C)O[C@@H]3O[C@@]4(C)CCC1[C@@]23OO4.[Cl-] (stereo partly drawn) [Aubis(4-Me)]	0.8	0.013 ± 0.003	>30 days	12.5 (11–14) days	>17.5 ± 1.5	cross-resistance	–	–	–	Median (range) Recrudescence Days, F32-TEM ([2]; dose 100 nM): 6 days; Median (range) Recrudescence Days, F32-TEM ([2]; dose 1 µM): 30 days; Median (range) Recrudescence Days, F32-ART ([3]; dose 100 nM): 5 days; Median (range) Recrudescence Days, F32-ART ([3]; dose 1 µM): 16 days; Mean ± SEM Difference of Recrudescence Days between F32-TEM and F32-ART ([4]; dose 100 nM): 1 days; Mean ± SEM Difference of Recrudescence Days between F32-TEM and F32-ART ([4]; dose 1 µM): 14 days
Cc1cc(C)c(-[n+]2ccn(CCCCCO[C@H]3O[C@@H]4O[C@@]5(C)CCC6[C@H](C)CCC([C@H]3C)[C@]64OO5)c2)c(C)c1 (stereo partly drawn) [L5-Mes, 3′-Mesityl-1′-[10β-(22-pentoxy)dihydroartemisinin]1H-imidazol-3-ium bromide]	–	0.098 ± 0.024	–	–	–	–	255	25	< 0.1	–
C[C@@H]1CCC2[C@@H](C)[C@@H](OCCCn3cc[n+](C)[c]3[Au-][c]3n(CCCO[C@H]4O[C@@H]5O[C@@]6(C)CCC7[C@H](C)CCC([C@H]4C)[C@]75OO6)cc[n+]3C)O[C@@H]3O[C@@]4(C)CCC1[C@@]23OO4.O=[N+]([O-])[O-] (stereo partly drawn) [Aubis(3-Me)]	5	0.035 ± 0.008	24 days	8 days	16	cross-resistance	–	–	–	Median (range) Recrudescence Days, F32-TEM ([2]; dose 200 nM): 14 (11–16) days; Median (range) Recrudescence Days, F32-ART ([3]; dose 200 nM): 7 (7–13) days; Mean ± SEM Difference of Recrudescence Days between F32-TEM and F32-ART ([4]; dose 200 nM): 4.6 ± 1.2 days
C[C@@H]1CCC2[C@@H](C)[C@@H](OCCCBr)O[C@@H]3O[C@@]4(C)CCC1[C@@]23OO4 (stereo partly drawn) [DHA-C3, 10β-(20-Bromopropoxy)dihydroartemisinin]	–	–	–	–	–	–	294	2.5	0.0085 ± 0.003	–
C[C@@H]1CCC2[C@@H](C)[C@@H](OCCCCCn3cc[n+](C)[c]3[Au-][c]3n(CCCCCO[C@H]4O[C@@H]5O[C@@]6(C)CCC7[C@H](C)CCC([C@H]4C)[C@]75OO6)cc[n+]3C)O[C@@H]3O[C@@]4(C)CCC1[C@@]23OO4.[Cl-] (stereo partly drawn) [Aubis(5-Me)]	1	0.009 ± 0.0009	>25.5 (21–>30) days	9.5 (8–11) days	>16	cross-resistance	–	–	–	Median (range) Recrudescence Days, F32-TEM ([2]; dose 100 nM): 15 days; Median (range) Recrudescence Days, F32-TEM ([2]; dose 1 µM): 30 days; Median (range) Recrudescence Days, F32-ART ([3]; dose 100 nM): 6 days; Median (range) Recrudescence Days, F32-ART ([3]; dose 1 µM): 9 days; Mean ± SEM Difference of Recrudescence Days between F32-TEM and F32-ART ([4]; dose 100 nM): 9 days; Mean ± SEM Difference of Recrudescence Days between F32-TEM and F32-ART ([4]; dose 1 µM): 21 days
C[C@@H]1CCC2[C@@H](C)[C@@H](OCCCCCn3cc[n+](Cc4ccccc4)c3)O[C@@H]3O[C@@]4(C)CCC1[C@@]23OO4 (stereo partly drawn) [L5-Bn, 3′-Benzyl-1′-[10β-(22-pentoxy)dihydroartemisinin]1H-imidazol-3-ium bromide]	–	0.098 ± 0.026	–	–	–	–	10	1	< 0.1	–
C[C@@H]1CC[C@H]2[C@@H](C)C(=O)O[C@@H]3O[C@@]4(C)CC[C@@H]1[C@]32OO4 [Artemisinin, reference compound]	–	–	–	–	–	–	7 000	130	0.018 ± 0.002	Median (range) Recrudescence Days, F32-TEM ([2]; dose 18 µM): 18.5 (17–>30) days; Median (range) Recrudescence Days, F32-ART ([3]; dose 18 µM): 9.5 (6–17) days; Mean ± SEM Difference of Recrudescence Days between F32-TEM and F32-ART ([4]; dose 18 µM): 9.7 ± 0.3 days; Mean ± SEM Difference of Recrudescence Days between F32-TEM and F32-ART ([4]; dose 18 µM, listed as artemisinin): 9.7 days
